The values that follow are results of earlier work, collected in patent publication US20120301532A1, “COMPOSITIONS AND METHODS FOR TREATING MATERIALS WITH INSECTICIDES AND POTENTIATING AGENTS” (ALLERGY TECHNOLOGIES, LLC, priority 2011, published 2012).

The test system of the series is bed bugs. Conditions: bed bug attractants, background statement.

As to `O=C=O` [CO2], the effective attractant range is ≥ 86 centimeters.
